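All cell lines were grown in 96-well plates and treated with compound for 48 hours. TGI: concentration producing complete growth inhibition.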
Key:
Assay in all cases: NCI tumour cell line growth inhibition, 48 h
UACC-62 melanoma = test system: UACC-62 melanoma
MDA-N = test system: MDA-N
UACC-257 melanoma = test system: UACC-257 melanoma
ACHN renal = test system: ACHN renal
M14 melanoma = test system: M14 melanoma
DU-145 prostate = test system: DU-145 prostate
UO-31 renal = test system: UO-31 renal
TK-10 renal = test system: TK-10 renal
SK-OV-3 ovarian = test system: SK-OV-3 ovarian
HOP-62 NSCLC = test system: HOP-62 NSCLC
COLO 205 colon = test system: COLO 205 colon
LOX IMVI melanoma = test system: LOX IMVI melanoma
RPMI-8226 leukemia = test system: RPMI-8226 leukemia
HCC-2998 colon = test system: HCC-2998 colon
EKVX NSCLC = test system: EKVX NSCLC
MDA-MB-435 = test system: MDA-MB-435
SNB-19 CNS = test system: SNB-19 CNS
NCI-H522 lung = test system: NCI-H522 lung
A498 renal = test system: A498 renal
NCI-H226 lung = test system: NCI-H226 lung
HS 578T breast = test system: HS 578T breast
KM12 colon = test system: KM12 colon
MDA-MB-231 breast = test system: MDA-MB-231 breast
CCRF-CEM leukemia = test system: CCRF-CEM leukemia
K-562 leukemia = test system: K-562 leukemia
SW-620 colon = test system: SW-620 colon
SN12C renal = test system: SN12C renal
NCI/ADR-RES ovarian = test system: NCI/ADR-RES ovarian
SF-268 CNS = test system: SF-268 CNS
SF-295 CNS = test system: SF-295 CNS
MALME-3M melanoma = test system: MALME-3M melanoma
HCT-15 colon = test system: HCT-15 colon
BT-549 breast = test system: BT-549 breast
MOLT-4 leukemia = test system: MOLT-4 leukemia
OVCAR-4 ovarian = test system: OVCAR-4 ovarian
T-47D breast = test system: T-47D breast
HT29 colon = test system: HT29 colon
HOP-92 NSCLC = test system: HOP-92 NSCLC
SR leukemia = test system: SR leukemia
A549 NSCLC = test system: A549 NSCLC
RXF 393 renal = test system: RXF 393 renal
NCI-H23 lung = test system: NCI-H23 lung
IGROV1 ovarian = test system: IGROV1 ovarian
OVCAR-5 ovarian = test system: OVCAR-5 ovarian
CAKI-1 renal = test system: CAKI-1 renal
SK-MEL-2 melanoma = test system: SK-MEL-2 melanoma
SNB-75 CNS = test system: SNB-75 CNS
PC-3 prostate = test system: PC-3 prostate
OVCAR-3 ovarian = test system: OVCAR-3 ovarian
U251 CNS = test system: U251 CNS
HCT-116 colon = test system: HCT-116 colon
NCI-H460 lung = test system: NCI-H460 lung
OVCAR-8 ovarian = test system: OVCAR-8 ovarian
786-0 renal = test system: 786-0 renal
HL-60(TB) leukemia = test system: HL-60(TB) leukemia
MCF7 breast = test system: MCF7 breast
SK-MEL-28 melanoma = test system: SK-MEL-28 melanoma
SK-MEL-5 melanoma = test system: SK-MEL-5 melanoma
SF-539 CNS = test system: SF-539 CNS

`CC#CC#C/C=C1/O[C@]2(CCC(OC(C)=O)CO2)[C@@H]2O[C@H]12` (some centres not stated) gave a TGI (UACC-62 melanoma) of 36.8 µM, a TGI (MDA-N) greater than 100 µM and a TGI (UACC-257 melanoma) of 74.9 µM. For the same molecule, the TGI (ACHN renal) was 60.8 µM, the TGI (M14 melanoma) was 67.6 µM and the TGI (DU-145 prostate) was greater than 100 µM. The TGI (UO-31 renal) was 39 µM, the TGI (TK-10 renal) was greater than 100 µM and the TGI (SK-OV-3 ovarian) was greater than 100 µM. It also gave a TGI (HOP-62 NSCLC) greater than 100 µM, a TGI (COLO 205 colon) of 32.4 µM and a TGI (LOX IMVI melanoma) of 48.2 µM. For the same molecule, the TGI (RPMI-8226 leukemia) was 75.2 µM, the TGI (HCC-2998 colon) was 33 µM and the TGI (EKVX NSCLC) was 77.5 µM. The TGI (MDA-MB-435) was 81.5 µM, the TGI (SNB-19 CNS) was greater than 100 µM and the TGI (NCI-H522 lung) was 35.6 µM. The TGI (A498 renal) was 45.7 µM, the TGI (NCI-H226 lung) was 47.4 µM and the TGI (HS 578T breast) was greater than 100 µM. For the same molecule, the TGI (KM12 colon) was 47.1 µM, the TGI (MDA-MB-231 breast) was 44.2 µM and the TGI (CCRF-CEM leukemia) was 55.3 µM. It also gave a TGI (K-562 leukemia) greater than 100 µM, a TGI (SW-620 colon) of 95.9 µM and a TGI (SN12C renal) of 51.9 µM. For the same molecule, the TGI (NCI/ADR-RES ovarian) was 58.1 µM, the TGI (SF-268 CNS) was greater than 100 µM and the TGI (SF-295 CNS) was greater than 100 µM. The TGI (MALME-3M melanoma) was 35.6 µM, the TGI (HCT-15 colon) was 42.8 µM and the TGI (BT-549 breast) was 50.4 µM. The TGI (MOLT-4 leukemia) was 57 µM, the TGI (OVCAR-4 ovarian) was greater than 100 µM and the TGI (T-47D breast) was 52.1 µM. The TGI (HT29 colon) was 96.1 µM, the TGI (HOP-92 NSCLC) was 92.9 µM and the TGI (SR leukemia) was greater than 100 µM. It also gave a TGI (A549 NSCLC) greater than 100 µM, a TGI (RXF 393 renal) of 47.5 µM and a TGI (NCI-H23 lung) of 44.7 µM. For the same molecule, the TGI (IGROV1 ovarian) was greater than 100 µM, the TGI (OVCAR-5 ovarian) was 71.2 µM and the TGI (CAKI-1 renal) was 63.6 µM. For the same molecule, the TGI (SK-MEL-2 melanoma) was 40.5 µM, the TGI (SNB-75 CNS) was greater than 100 µM and the TGI (PC-3 prostate) was 80.9 µM. It also gave a TGI (OVCAR-3 ovarian) greater than 100 µM, a TGI (U251 CNS) of 39.1 µM and a TGI (HCT-116 colon) of 40.6 µM. The TGI (NCI-H460 lung) was 41.8 µM, the TGI (OVCAR-8 ovarian) was greater than 100 µM and the TGI (786-0 renal) was 46.9 µM. For the same molecule, the TGI (HL-60(TB) leukemia) was 48.7 µM and the TGI (MCF7 breast) was greater than 100 µM.

With `CC1CNc2ccccc2N=C1NN` (configuration not stated) the TGI (UACC-62 melanoma) was greater than 100 µM, the TGI (MDA-N) was greater than 100 µM and the TGI (UACC-257 melanoma) was greater than 100 µM. It also gave a TGI (ACHN renal) greater than 100 µM, a TGI (M14 melanoma) greater than 100 µM and a TGI (DU-145 prostate) greater than 100 µM. The TGI (UO-31 renal) was greater than 100 µM, the TGI (TK-10 renal) was greater than 100 µM and the TGI (SK-OV-3 ovarian) was greater than 100 µM. It also gave a TGI (HOP-62 NSCLC) greater than 100 µM, a TGI (COLO 205 colon) greater than 100 µM and a TGI (LOX IMVI melanoma) greater than 100 µM. For the same molecule, the TGI (RPMI-8226 leukemia) was greater than 100 µM, the TGI (HCC-2998 colon) was greater than 100 µM and the TGI (EKVX NSCLC) was greater than 100 µM. For the same molecule, the TGI (MDA-MB-435) was greater than 100 µM, the TGI (SNB-19 CNS) was greater than 100 µM and the TGI (NCI-H522 lung) was greater than 100 µM. The TGI (A498 renal) was greater than 100 µM, the TGI (NCI-H226 lung) was greater than 100 µM and the TGI (SK-MEL-28 melanoma) was greater than 100 µM. The TGI (HS 578T breast) was greater than 100 µM, the TGI (KM12 colon) was greater than 100 µM and the TGI (MDA-MB-231 breast) was greater than 100 µM. It also gave a TGI (CCRF-CEM leukemia) greater than 100 µM, a TGI (K-562 leukemia) greater than 100 µM and a TGI (SW-620 colon) greater than 100 µM. It also gave a TGI (SN12C renal) greater than 100 µM, a TGI (NCI/ADR-RES ovarian) greater than 100 µM and a TGI (SF-268 CNS) greater than 100 µM. It also gave a TGI (SF-295 CNS) greater than 100 µM, a TGI (MALME-3M melanoma) greater than 100 µM and a TGI (HCT-15 colon) greater than 100 µM. For the same molecule, the TGI (SK-MEL-5 melanoma) was greater than 100 µM, the TGI (BT-549 breast) was greater than 100 µM and the TGI (OVCAR-4 ovarian) was greater than 100 µM. For the same molecule, the TGI (T-47D breast) was greater than 100 µM, the TGI (HT29 colon) was greater than 100 µM and the TGI (SR leukemia) was greater than 100 µM. The TGI (A549 NSCLC) was greater than 100 µM, the TGI (SF-539 CNS) was greater than 100 µM and the TGI (RXF 393 renal) was greater than 100 µM. For the same molecule, the TGI (NCI-H23 lung) was greater than 100 µM, the TGI (IGROV1 ovarian) was greater than 100 µM and the TGI (OVCAR-5 ovarian) was greater than 100 µM. For the same molecule, the TGI (CAKI-1 renal) was greater than 100 µM, the TGI (SK-MEL-2 melanoma) was greater than 100 µM and the TGI (PC-3 prostate) was greater than 100 µM. It also gave a TGI (OVCAR-3 ovarian) greater than 100 µM, a TGI (U251 CNS) greater than 100 µM and a TGI (HCT-116 colon) greater than 100 µM. It also gave a TGI (NCI-H460 lung) greater than 100 µM, a TGI (OVCAR-8 ovarian) greater than 100 µM and a TGI (786-0 renal) greater than 100 µM. The TGI (HL-60(TB) leukemia) was greater than 24.8 µM and the TGI (MCF7 breast) was greater than 100 µM.
